# Results published in patent US8288555B2, “Alkene derivatives as sphingosine 1-phosphate (S1P) receptor modulators” (Allergan, Inc., priority 2010, dated 2012).
# Molecular target: T1, human S1P4 receptor (Homo sapiens, UniProt O95977)
# T1 construct: expressed in transfected cells; membranes used
# T1 sequence (O95977 1-384): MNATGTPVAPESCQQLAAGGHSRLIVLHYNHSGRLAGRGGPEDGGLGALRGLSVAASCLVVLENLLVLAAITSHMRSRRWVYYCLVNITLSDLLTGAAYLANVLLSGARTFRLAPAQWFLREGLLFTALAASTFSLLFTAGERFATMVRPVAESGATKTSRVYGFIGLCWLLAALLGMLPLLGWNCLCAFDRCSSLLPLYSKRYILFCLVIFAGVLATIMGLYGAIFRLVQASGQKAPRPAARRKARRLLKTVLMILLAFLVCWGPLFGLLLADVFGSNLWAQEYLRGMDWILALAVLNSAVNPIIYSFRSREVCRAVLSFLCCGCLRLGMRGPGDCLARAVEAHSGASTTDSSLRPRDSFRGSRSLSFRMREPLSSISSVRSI
# Test: GTP γ35S binding assay for S1P4 activity
# Assay type: biochemical
# Settings: activity potency at the S1P4 receptor from GTP γ35S binding; membranes of cells stably expressing the S1P4 receptor; test compounds 0.08 to 5,000 nM
# Method: Compounds were synthesized and tested for S1P4 activity using the GTP γ^35S binding assay. These compounds may be assessed for their ability to activate or block activation of the human S1P4 receptor in cells stably expressing the S1P4 receptor.
# GTP γ^35S binding was measured in the medium containing (mM) HEPES 25, pH 7.4, MgCl2 10, NaCl 100, dithitothreitol 0.5, digitonin 0.003%, 0.2 nM GTP γ^35S, and 5 μg membrane protein in a volume of 150 μl. Test compounds were included in the concentration range from 0.08 to 5,000 nM unless indicated otherwise. Membranes were incubated with 100 μM 5′-adenylylimmidodiphosphate for 30 min, and subsequently with 10 μM GDP for 10 min on ice. Drug solutions and membrane were mixed, and then reactions were initiated by adding GTP γ^35S and continued for 30 min at 25° C. Reaction mixtures were filtered over Whatman GF/B filters under vacuum, and washed three times with 3 mL of ice-cold buffer (HEPES 25, pH7.4, MgCl2 10 and NaCl 100). Filters were dried and mixed with scintillant, and counted for ^35S activity using a β-counter. Agonist-induced GTP γ^35S binding was obtained by subtracting that in the absence of agonist. Binding data were analyzed using a non-linear regression method. In case of antagonist assay, the reaction mixture contained 10 nM S1P in the presence of test antagonist at concentrations ranging from 0.08 to 5000 nM.
row,SMILES,EC50
1,"CNc1ncccc1-c1noc(/C(=C/c2ccc(C)c(C)c2)c2cccs2)n1 [3-{5-[(Z)-2-(3,4-dimethylphenyl)-1-(2-thienyl)vinyl]-1,2,4-oxadiazol-3-yl}-N-methylpyridin-2-amine]",140 nM
2,"CNc1ncccc1-c1noc(/C(=C/c2ccc(C)c(C)c2)c2cccc(F)c2)n1 [Compound 5, 3-{5-[(E)-2-(3,4-Dimethylphenyl)-1-(3-fluorophenyl)vinyl]-1,2,4-oxadiazol-3-yl}-N-methylpyridin-2-amine]",375 nM
3,"CNc1ncccc1-c1noc(/C(=C/c2ccc(C)c(C)c2)c2cccc(C)c2)n1 [Compound 6, 3-{5-[(E)-2-(3,4-Dimethylphenyl)-1-(3-methylphenyl)vinyl]-1,2,4-oxadiazol-3-yl}-N-methylpyridin-2-amine]",2020 nM
4,"CNc1ncccc1-c1noc(/C(=C/c2ccc(C)c(C)c2)c2cccc(Cl)c2)n1 [Compound 7, 3-{5-[(E)-1-(3-Chlorophenyl)-2-(3,4-dimethylphenyl)vinyl]-1,2,4-oxadiazol-3-yl}-N-methylpyridin-2-amine]",79.3 nM
5,"CNc1ncccc1-c1noc(/C(=C/c2ccc(C)c(C)c2)c2ccsc2)n1 [Compound 8, 3-{5-[(E)-2-(3,4-Dimethylphenyl)-1-(3-thienyl)vinyl]-1,2,4-oxadiazol-3-yl}-N-methylpyridin-2-amine]",665 nM
6,"CNc1ncccc1-c1noc(/C(=C/c2ccc(C)cc2)c2cccs2)n1 [Compound 10, N-Methyl-3-{5-[(Z)-2-(4-methylphenyl)-1-(2-thienyl)vinyl]-1,2,4-oxadiazol-3-yl}pyridin-2-amine]",635 nM
7,"CNc1ncccc1-c1noc(/C(=C/c2ccc(C)c(C)c2)c2cc(F)cc(F)c2)n1 [Compound 14, 3-{5-[(E)-1-(3,5-Difluorophenyl)-2-(3,4-dimethylphenyl)vinyl]-1,2,4-oxadiazol-3-yl}-N-methylpyridin-2-amine]",550 nM
8,"CNc1ncccc1-c1noc(/C(=C/c2ccc(C)c(C)c2)c2cccc(OC)c2)n1 [Compound 15, 3-{5-[(E)-2-(3,4-Dimethylphenyl)-1-(3-methoxyphenyl)vinyl]-1,2,4-oxadiazol-3-yl}-N-methylpyridin-2-amine]",1780 nM
9,"CNc1ncccc1-c1noc(/C(=C/c2ccc(C)c(C)c2)c2ccccc2OC)n1 [Compound 16, 3-{5-[(E)-2-(3,4-Dimethylphenyl)-1-(2-methoxyphenyl)vinyl]-1,2,4-oxadiazol-3-yl}-N-methylpyridin-2-amine]",501 nM
10,"CNc1ncccc1-c1noc(/C(=C/c2ccccc2C)c2cccc(Cl)c2)n1 [Compound 20, 3-{5-[(E)-1-(3-Chlorophenyl)-2-(2-methylphenyl)vinyl]-1,2,4-oxadiazol-3-yl}-N-methylpyridin-2-amine]",2000 nM
